“Also recorded” adds a separate entry of the source.
Columns and labels:
[1] = tested on: cataract-causing mutant crystallin proteins; assay: Intracellular aggregation of mutant crystallins in HeLa cells; type: cell-based, human; conditions: then 12 h
Method: (§1) FIG. 9A, FIG. 9B, and FIG. 9C show inhibition of crystallin mutant aggregation by wild-type LSS and lanosterol in HLEB-3 cells (FIG. 9A) or HeLa cells (FIG. 9B). Cells co-transfected with LSS and crystallin mutant constructs were cultured for 24 h before assaying for aggregates. The rescue experiments were performed by addition of 40 […] μM sterols (lanosterol or cholesterol) to the cell culture medium for 2 h, the sterol medium was then replaced with fresh culture medium and the cells were cultured for a further 12 h. The percentage of cells with crystallin aggregates were calculated from ten randomly selected viewing fields. The values of the wild-type LSS group, mutant group, or mutant plus lanosterol group were calculated. […] After transfection for 4 h and incubation in fresh culture medium for another 24 h, the cells were lysed and centrifuged to separate supernatant and insoluble fractions. LSS and crystallin fusion proteins were detected by antibodies against Flag and GFP, respectively. Red arrows indicate higher crystalline content in the soluble fraction versus in the insoluble fraction in cells containing the WT-LSS.
(§2) Cells were transfected with various crystallin constructs for 4 h and cultured for an additional 24 h in fresh culture medium. Then the cells were treated with 10, 20 and 40 μM lanosterol in 1% (HLEB-3 cells) or 2% DMSO (HeLa cells) for 2 h and cultured for another 12 h. Cells treated with 1% (HLEB-3 cells) or 2% DMSO (HeLa cells) were used as the controls. Formation of intracellular aggregates of various crystallin proteins was visualized by fluorescence of GFP (green) and the nuclei were stained with Hoechst 33342 (blue). Typical intracellular aggregates are indicated by arrows.
(§3) The impact of LSS and lanosterol on intracellular crystallin aggregation were evaluated in single-blinded observer studies. Experiments have been repeated at least three times. P values were calculated using Student's t-tests. Fluorescence microscopy. […]

[2] = tested on: cataract-causing mutant crystallin proteins; assay: Intracellular aggregation of mutant crystallins in HLEB-3 cells; type: cell-based, human; conditions: then 12 h
Method: as §1, §2, §3

[3] = tested on: cataract-causing mutant crystallins; assay: Western blot of soluble and insoluble fractions of cell lysates; type: cell-based; conditions: human lens progenitor cells, n=3, P<0.001
Source text: The cells were harvested and lysed. Supernatant and insoluble fractions were separated by centrifugation and analyzed by western blot analysis. LSS and crystallin fusion proteins were identified by antibodies against Flag and GFP tags, respectively. The lanosterol-treated group is highlighted by red boxes. Cells treated with 1% DMSO were used as a control. β-Actin was used as an internal protein loading control of total cell lysates (TCL). S, supernatant; P, insoluble fraction. […] Crystallin aggregates were formed by incubating 5 mg ml^−1 protein solution at 60° C. for 2 h (α-crystallins) or 37° C. for 48 h (β- and γ-crystallins) in the presence of 1 M guanidine chloride. The preformed aggregates were re-suspended in PBS at a final protein concentration of 0.2 mg ml^−1 and were treated with 500 μM sterols in 500 μM DPPC liposome and incubated at 37° C. for 24 h. […] Aggregates treated with 500 μM DPPC liposome only were used as the controls.
LC-MS analysis. […] The derived samples were analyzed by an Agilent 1290/6460 triple quadrupole LC/MS using an alternative Atmospheric Pressure Chemical Ionisation (APCI) source. […] Quantification of the western blot bands was achieved using the software GELPRO (Media Cybernetics). The presented quantitative data were calculated from three independent experiments.

CC(C)=CCC[C@@H](C)[C@H]1CC[C@@]2(C)C3=C(CC[C@]12C)[C@@]1(C)CC[C@H](O)C(C)(C)[C@@H]1CC3 [lanosterol, 3β-Hydroxy-8,24-lanostadiene; 8,24-Lanostadien-3β-ol]
percentage of cells with crystallin aggregates versus control group (rescue) ([1]; HeLa cells co-transfected with LSS and crystallin mutant, 40 μM sterols 2 h, lanosterol P<1×10^−4, cholesterol P>0.1): significantly lower
intracellular aggregation caused by cataract-causing mutant crystallin proteins ([1]; HeLa cells, 10, 20 and 40 μM lanosterol in 2% DMSO for 2 h, concentration-dependent): significantly reduced the intracellular aggregation
percentage of cells with crystallin aggregates versus control group (rescue) ([2]; HLEB-3 cells co-transfected with LSS and crystallin mutant, 40 μM sterols 2 h, lanosterol P<1×10^−4, cholesterol P>0.1): significantly lower
intracellular aggregation caused by cataract-causing mutant crystallin proteins ([2]; HLEB-3 cells, 10, 20 and 40 μM lanosterol in 1% DMSO for 2 h, concentration-dependent): significantly reduced the intracellular aggregation
amount of mutant crystallins in the soluble fractions of cell lysates [3]: increased the amounts of mutant crystallins in the soluble fractions; also recorded: increased cataract-causing mutant crystallins in soluble fractions
